Tests used:
[1] = Compound pharmacokinetics study in mice (plasma and brain); type: in vivo; settings: mouse; for AUC(0-t): iv (2 mpk) or PO (10 mpk), followed for 24 hours
Experimental: Compound Pharmacokinetics Study in Mice
The compound was administered to six male swiss mice (five weeks old) by the PO route and six male mice by the iv route (caudal vein). […] For the PO route (10 mg/kg), the compound was dissolved in a solution of 0.5% Methyl cellulose (ref sigma M0262) and 0.3% Polysorbate 80 (Tween 80—ref sigma P8074). During the iv administration and blood sampling animals were anesthetized with Isofluorane® (from Belamont) using an anaesthetic system (Minerve). At the precise time-point, blood samplings were done at the retro-orbital sinus, with a capillary tube. The blood volume collected per each time-point was 0.2-0.3 ml. Blood samples were collected into tubes containing both lithium and heparin and then centrifuged at 2500 rpm at 4° C. Plasma was removed and transferred into polypropylene tubes. Individual plasma aliquots were frozen at −20° C. (±5° C.) and stored until analysis.
After blood sampling, the animals were perfused with 7 ml cold saline solution directly into the heart to extract the maximum of blood from the brain vasculature. Animals were then beheaded and the brain tissue collected and frozen at −20° C. (±5° C.) and stored until analysis. Prior to the sample analysis, the suitability of the analytical method to detect the compounds to be evaluated was performed as described below. The molecular and daughter ions were selected for each molecule by direct infusion into the MS-MS system. For those plasma samples which are mixed prior to analysis, precaution was taken to avoid mixing common moieties both with regards to the parent compounds as well as potential metabolites. According to the expected sensitivity, 8 point calibration standards (1, 5, 10, 50, 100, 500, 1000 and 5000 ng/mL) were run using standard conditions which consist to LC/MS/MS system with C18 column after precipitation of the plasma proteins with acetonitrile before the start of the analytical test. Calibration standards were performed in each matrix (plasma and brain). Prior to analysis, 100 μL of each plasma sample was mixed with 300 μL acetonitrile. Following protein precipitation, samples were vortex mixed for 30 seconds, centrifuged 5 min at 15000 tr/min and the supernatant was removed. Analyses were performed using LC/MS/MS determination according to previous analytical test results. Brains were homogenized with a potter using water (1/1, w/w). 100 μl of the homogenate was mixed with 100 μl of acetonitrile. The mixture was mixed (Vortex) for 30 seconds, then centrifuged during 5 min at 15000 tr/min. Brain homogenate supernatants were directly measured by LC/MS/MS after centrifugation. LC-MS/MS system was used with a C18 Kromasil column and API4000® from Applied Biosystem or Quattro® from Waters as mass spectrometers.

hPPARdelta = biological target: T1, hPPARdelta (Homo sapiens, UniProt Q03181); test: Gal4-hPPARdelta transactivation assay in COS-7 cells (luciferase); type: cell-based
T1 construct: Gal4-hPPARδ(LBD); Gal4 (fusion partner); expressed in transfected cells; host or cells: COS-7 (monkey kidney)
T1 sequence (Q03181 211-439 limits assumed): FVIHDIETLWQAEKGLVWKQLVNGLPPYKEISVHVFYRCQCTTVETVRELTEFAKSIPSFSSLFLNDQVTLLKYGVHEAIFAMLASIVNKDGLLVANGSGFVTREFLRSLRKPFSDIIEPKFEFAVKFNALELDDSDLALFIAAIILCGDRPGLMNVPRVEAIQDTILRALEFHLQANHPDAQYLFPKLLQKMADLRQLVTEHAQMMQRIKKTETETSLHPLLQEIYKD
In short: (§1)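 COS-7 cells transiently co-transfected with Gal4-hPPAR chimeras and a Gal4(RE)_TkpGL3 luciferase reporter (1/50 ratio) were seeded at 20,000 cells/well for 4 h, then treated in 2% lipid-free synthetic serum medium (0.1% DMSO). EC50 and Hill slope came from fitted luciferase curves. Emax is relative to fenofibrate 100 μM (α), rosiglitazone 10 μM (γ) or GW501516 1 μM (δ).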

APPPS1 mice = test: Alzheimer's disease model (APPPS1 mice): Morris-Water-Maze test; type: in vivo, mouse; settings: 60 days, +/- standard deviation
hPPARgamma = biological target: T2, hPPARgamma (Homo sapiens, UniProt P37231); test: Gal4-hPPARgamma transactivation assay in COS-7 cells (luciferase); type: cell-based
T2 construct: Gal4-hPPARγ(LBD); Gal4 (fusion partner); expressed in transfected cells; host or cells: COS-7 (monkey kidney)
T2 sequence (P37231 238-503 limits assumed): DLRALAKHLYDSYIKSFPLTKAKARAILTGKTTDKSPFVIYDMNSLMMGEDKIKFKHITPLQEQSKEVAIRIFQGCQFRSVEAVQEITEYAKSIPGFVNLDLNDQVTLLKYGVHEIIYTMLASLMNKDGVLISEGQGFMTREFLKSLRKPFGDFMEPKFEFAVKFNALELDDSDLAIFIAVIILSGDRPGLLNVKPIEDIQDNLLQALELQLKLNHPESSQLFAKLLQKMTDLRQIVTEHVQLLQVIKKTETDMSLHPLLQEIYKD
In short: as §1

[2] = maximal relative activation vs reference, listed as cpd 14-1-2

bioavailability ([1]; male, Swiss, plasma, PO (10 mpk) versus iv (2 mpk), read-out: F % (bioavailability)): 93% | AUC(0-t) ([1]; male, Swiss, brain): 26700 ng·h/mL | Kp ([1]; male, Swiss, from AUC comparison brain to plasma, read-out: part of the administered compound that penetrates into the brain): 0.37 | AUC(0-t) ([1]; male, Swiss, plasma): 71800 ng·h/mL | brain/plasma ratio ([1]; AUC comparison (brain exposure to plasma exposure ratio)): 0.37 | F % (bioavailability) ([1]; PO (10 mpk) versus iv (2 mpk)): 92.9% | EC50 (hPPARdelta; Gal4-hPPARδ(LBD) transactivation): 4 nM | Gal4-hPPARδ(LBD) TOP (% ref) (hPPARdelta; [2]): 90 % ref | EC50 (hPPARgamma; Gal4-hPPARγ(LBD) transactivation): 11 nM | Gal4-hPPARγ(LBD) TOP (% ref) (hPPARgamma; [2]): 82 % ref
SMILES: COC(c1ccc(OC(F)(F)F)cc1)C1CC1c1cc(C)c(OC(C)(C)C(=O)O)c(C)c1 (single isomer, unassigned) [Cpd 14-1-2, 2-(4-(2-(methoxy(4-(trifluoromethoxy)phenyl)methyl)cyclopropyl)-2,6-dimethylphenoxy)-2-methylpropanoic acid]
Morris-Water maze distance, mean reduction from untreated APPPS1 mice (APPPS1 mice; 1 mpk per day): 22.6 % +/− 21% (*) | Morris-Water maze latency, mean reduction from untreated APPPS1 mice (APPPS1 mice; 1 mpk per day): 45.6 % +/− 16 % (**) | Morris-Water maze distance, mean reduction from untreated APPPS1 mice (APPPS1 mice; 10 mpk per day): 31.1 % +/− 18 % (**) | Morris-Water maze latency, mean reduction from untreated APPPS1 mice (APPPS1 mice; 10 mpk per day): 39.9 % +/− 20 % (**)
